In patent publication US6630498B2 (SmithKline Beecham Corporation, priority 1997, dated 2003):

What was measured:
[1] = Mucosal to serosal permeability through rabbit colon in vitro; format: in vitro ADME
[2] = cited from earlier work
[3] = Flow through dissolution of granules with pH gradient; format: physicochemical; conditions: for in vitro dissolution profile (in words): compared to the monomethanesulfonate salt (granules); for Percent of Eprosartan dissolved from the granules: flow through 8 mL/min, 37° C.
Description: A flow through dissolution apparatus at 8 mL/min flow rate, 37° C. and the following pH gradient

Structure (SMILES)	increase of mucosal to serosal permeability through rabbit colon ([1]; in the presence of L-arginine as a solution, compared to the monomethanesulfonate alone) [%]	bioavailability (in words) ([2]; human)	mean absolute bioavailability ([2]; human)	time to maximum concentration ([2]; human, fed state) [h]	safety and tolerability in human clinical studies ([2]; up to doses of 800 mg per day)	in vitro dissolution profile (in words) [3]	in vitro dissolution profile (in words) ([3]; listed as arginine charge-neutralization-complex)	Percent of Eprosartan dissolved from the granules ([3]; time 0 min, pH gradient) [%]	Percent of Eprosartan dissolved from the granules ([3]; time 45 min (pH 1.2 SGF step)) [%]	Percent of Eprosartan dissolved from the granules ([3]; time 90 min (pH 3.0 step)) [%]	Percent of Eprosartan dissolved from the granules ([3]; time 120 min (pH 4.0 step)) [%]	Percent of Eprosartan dissolved from the granules ([3]; time 150 min (pH 5.0 step)) [%]	Percent of Eprosartan dissolved from the granules ([3]; time 180 min (pH 6.0 step)) [%]	Percent of Eprosartan dissolved from the granules ([3]; time 225 min (pH 7.5 step)) [%]	in vitro permeability through rabbit colon (in words) ([1]; compared to the monomethanesulfonate salt)
CCCCc1ncc(/C=C(\Cc2cccs2)C(=O)O)n1Cc1ccc(C(=O)O)cc1 [(E)-α-[2-n-Butyl-1-[(4-carboxyphenyl)methyl]-1H-imidazol-5-yl]methylene-2-thiophenepropionic acid monomethanesulfonate]	50	low and variable bioavailability	approximately 13%	2.5 to 4	safe and well tolerated	–	–	–	–	–	–	–	–	–	–
CCCCc1ncc(/C=C(\Cc2cccs2)C(=O)O)n1Cc1ccc(C(=O)O)cc1.N=C(N)NCCC[C@H](N)C(=O)O [Arginyl charge-neutralization-complex, (E)-α-[2-n-butyl-1-[(4-carboxyphenyl)methyl]-1H-imidazol-5-yl]methylene-2-thiophenepropionic acid arginyl charge-neutralization-complex]	–	–	–	–	–	improved in vitro dissolution profile	better dissolution profile	0.00	32.81	35.82	36.24	37.44	46.70	100.63	increased in vitro permeability
